Assay results reported in US9944968B2, “Control of protein glycosylation by culture medium supplementation and cell culture process parameters” (Biogen MA Inc., priority 2013, dated 2018).
Like-named read-outs stand apart in the source and are kept apart here.

Assays:
DUXB11 cell line = experiment: DUXB11 3 L bioreactor with insulin additions and fixed MPA: afucosylation, glycosylation map, titer; format: cell-based, Chinese hamster; parameters: M3F / Afucosyl / G0 / G0F / MS / G1 + G1′ / G1F + G1F′ / M6 / G2 / G2F: unit not given here; conditions: for Afucosyl / G0 / G0F / G1 + G1′ / G1F + G1F′ / G2 / G2F / M3F / M6 / MS: with MPA, DUXB11; for Afucosylation (%) / Titer: fixed 5 μM MPA, DUXB11 3 L bioreactor
Procedure: FIG. 11. […] Fixed 5 μM of MPA was added on Day 9 in all bioreactors and harvested on the same day. Filtered supernatant samples were analyzed for titer and N-glycan analysis for afucosylation level.
The culture conditions are described in FIG. 11.

FcgRIII a = experiment: FcgRIIIa binding of product after insulin and MPA supplement on DUXB11
DUXB11 cell lines [1] = format: cell-based, Chinese hamster; conditions: for Cell viability (%): Chinese hamster, 3 days
Procedure: FIG. 7A and FIG. 7B. Impact of Mycophenolic acid (MPA) on afucosylation in cell lines (FIG. 7A and FIG. 7B showing two different cell lines) derived from DUXB11. The cells were cultured in 3 L bioreactor respectively for 7 days following the platform process. On day 7, the cells were divided into several 1 L shake flasks with 200 mL working volume and then dosed with various amounts of MPA (0 μM, […], 10 μM, 30 μM). After dosing MPA, shake flask fed-batch is conducted until day-3 harvest. Filtered supernatant samples were analyzed for titer and N-glycan analysis for afucosylation level.
DUXB11 cell lines (cell line #1 and #2) were cultured in 3 L bioreactor respectively for 7 days following the platform process. On day 7, the cells were divided into several 1 L shake flasks with 200 mL working volume and then dosed with various amounts of MPA (0 μM, 1 μM, 10 μM, 30 μM). After dosing MPA, shake flask fed-batch is conducted until day-3 harvest. Filtered supernatant samples were analyzed for titer and N-glycan analysis for afucosylation level. […] However, the titer was decreased (side effect) (see Table 8 below and FIG. 7A and FIG. 7B). […] The impact on viability became much more significant in bioreactor process (see Example 9 below).

DUXB11 cell lines [2] = format: cell-based, Chinese hamster; conditions: for impact on afucosylation: 3 L bioreactor, harvest D13; for Afucosylation (%) / Titer: MPA supplementation Day 5, DUXB11
Procedure: FIG. 8. Impact of the timing of supplementation with Mycophenolic acid (MPA) on afucosylation of DUXB11 cell line in 3 L bioreactors (A, B, C, and D) with the same seed density following the platform process. When the viable cell density (VCD) reached its peak (Day 5 in the study), fixed 5 μM of MPA was added in bioreactor A. At the same time, MPA was added in bioreactor B based on the VCD value to make sure MPA per cell is the same as the platform process to eliminate the possible impact of different cell growth. The next day (one day past peak VCD day, D6 in this study), fixed 5 μM of MPA was added in bioreactor C and MPA was added in bioreactor D based on its D6 VCD value to make sure MPA per cell is the same as the platform process to eliminate the possible impact of different cell growth. All bioreactors were harvested on D13. The filtered supernatant samples were analyzed for titer and N-glycan analysis for afucosylation level.
DUXB11 cell lines were cultured in 3 L bioreactor respectively following the platform process. On day 6, various amounts of MPA were dosed (0 μM and 5 μM). After dosing MPA, bioreactors were kept running until they were harvested on day 13. Filtered supernatant samples were analyzed for titer and N-glycan analysis for afucosylation level.
The culture conditions are described in FIG. 8. […] In addition, afucosylation level was increased with peak VCD day MPA addition (fixed 5 μM MPA vs. VCD based MPA addition).
The effect of temperature shift and supplementation with MPA is provided in FIG. 12, FIG. 13, FIG. 14A, and FIG. 14B and Table 11 below.

BIIB603 cell line = experiment: BIIB603 shake flask fed-batch with MPA or acMPAG: afucosylation (N-glycan analysis); format: cell-based; conditions: BIIB603 shake flasks; MPA 20, 40 μM or acMPAG 20 μM dosed day 6; 4 more days at 31 °C; FIG. 18
Procedure: (§1) FIG. 18. Impact of Mycophenolic acid (MPA) and Mycophenolic acid acyl glucuronide (acMPAG) on afucosylation in BIIB603 cell line. The cells were scaled up to 5 L BR for fed-batch production process. On day 5, temperature was shifted from 37° C. to 31° C. On day 6, cell culture was drained from the bioreactor and divided into several 500 mL shake flasks with 100 mL working volume and then dosed with various amounts of MPA (0 μM, 20 μM, 40 μM) or acMPAG (20 μM) in duplicates. After dosing, the shake flasks were cultured another 4 days at 31° C., 5% CO2 and 150 rpm with fed-batch process and then harvested. The supernatant was sent for PQ assay (N-glycan analysis) for afucosylation level.
as §1, with “BIIB603” for “FIG. 18. Impact of Mycophenolic acid (MPA) and Mycophenolic acid acyl glucuronide (acMPAG) on afucosylation in BIIB603”, “line was” for “line. The cells were”

[3] = 1 μM MPA dosed day 7, DUXB11 shake flask, harvest 3 days after dosing
[4] = 10 μM MPA dosed day 7, DUXB11 shake flask, harvest 3 days after dosing
[5] = 30 μM MPA dosed day 7, DUXB11 shake flask, harvest 3 days after dosing
[6] = increasing MPA dosing concentration (1, 10, 30 μM), shake flask

Molecule insulin has an Afucosyl (DUXB11 cell line; 2.5 mg/L ins in feed 1) of 4.9, a G0 (DUXB11 cell line; 2.5 mg/L ins in feed 1) of 3.9 and a G0F (DUXB11 cell line; 2.5 mg/L ins in feed 1) of 68.1. The “G1 + G1′” value (DUXB11 cell line; 2.5 mg/L ins in feed 1) was 0.9, the “G1F + G1F′” value (DUXB11 cell line; 2.5 mg/L ins in feed 1) was 20.2 and the G2 (DUXB11 cell line; 2.5 mg/L ins in feed 1) was 0.0. It also gave a G2F (DUXB11 cell line; 2.5 mg/L ins in feed 1) of 1.8, an M3F (DUXB11 cell line; 2.5 mg/L ins in feed 1) of 1.0 and an M6 (DUXB11 cell line; 2.5 mg/L ins in feed 1) of 0.90. For the same molecule, the MS (DUXB11 cell line; 2.5 mg/L ins in feed 1) was 2.2, the Afucosyl (DUXB11 cell line; 10 mg/L ins in feed 1) was 6.2 and the G0 (DUXB11 cell line; 10 mg/L ins in feed 1) was 5.1. The G0F (DUXB11 cell line; 10 mg/L ins in feed 1) was 64.9, the “G1 + G1′” value (DUXB11 cell line; 10 mg/L ins in feed 1) was 1.1 and the “G1F + G1F′” value (DUXB11 cell line; 10 mg/L ins in feed 1) was 21.7. The G2 (DUXB11 cell line; 10 mg/L ins in feed 1) was 0.0, the G2F (DUXB11 cell line; 10 mg/L ins in feed 1) was 2.3 and the M3F (DUXB11 cell line; 10 mg/L ins in feed 1) was 0.9. For the same molecule, the M6 (DUXB11 cell line; 10 mg/L ins in feed 1) was 0.9, the MS (DUXB11 cell line; 10 mg/L ins in feed 1) was 2.2 and the G0 (DUXB11 cell line; 30 mg/L ins in feed 1) was 6.7. For the same molecule, the G0F (DUXB11 cell line; 30 mg/L ins in feed 1) was 62.5, the “G1 + G1′” value (DUXB11 cell line; 30 mg/L ins in feed 1) was 1.3 and the “G1F + G1F′” value (DUXB11 cell line; 30 mg/L ins in feed 1) was 21.1. For the same molecule, the G2 (DUXB11 cell line; 30 mg/L ins in feed 1) was 0.0, the G2F (DUXB11 cell line; 30 mg/L ins in feed 1) was 2.3 and the M3F (DUXB11 cell line; 30 mg/L ins in feed 1) was 0.9. For the same molecule, the M6 (DUXB11 cell line; 30 mg/L ins in feed 1) was 1.1, the MS (DUXB11 cell line; 30 mg/L ins in feed 1) was 2.4 and the G0 (DUXB11 cell line; 60 mg/L ins in feed 1) was 6.4. For the same molecule, the G0F (DUXB11 cell line; 60 mg/L ins in feed 1) was 61.4, the “G1 + G1′” value (DUXB11 cell line; 60 mg/L ins in feed 1) was 1.4 and the “G1F + G1F′” value (DUXB11 cell line; 60 mg/L ins in feed 1) was 22.9. The G2 (DUXB11 cell line; 60 mg/L ins in feed 1) was 0.0, the G2F (DUXB11 cell line; 60 mg/L ins in feed 1) was 2.6 and the M3F (DUXB11 cell line; 60 mg/L ins in feed 1) was 0.8. The M6 (DUXB11 cell line; 60 mg/L ins in feed 1) was 0.9, the MS (DUXB11 cell line; 60 mg/L ins in feed 1) was 2.5 and the afucosylation (DUXB11 cell line; increasing insulin concentration with same MPA supplementation, fed-batch culture) was “increased afucosylation”. The “Afucosylation (%)” value (DUXB11 cell line; total insulin added 11 mg/L) was 4.9%, the “Titer” value (DUXB11 cell line; total insulin added 11 mg/L) was 2.3 g/L and the “Afucosylation (%)” value (DUXB11 cell line; total insulin added 13 mg/L) was 6.2%. The “Titer” value (DUXB11 cell line; total insulin added 13 mg/L) was 2.6 g/L, the FcgRIII a binding (FcgRIII a; 2.5 mg/L ins in feed 1, with MPA) was 60 and the FcgRIII a binding (FcgRIII a; 10 mg/L ins in feed 1, with MPA) was 71. The FcgRIII a binding (FcgRIII a; 30 mg/L ins in feed 1, with MPA) was 100 and the FcgRIII a binding (FcgRIII a; 60 mg/L ins in feed 1, with MPA) was 100.
For `COc1c(C)c2c(c(O)c1C/C=C(\C)CCC(=O)O)C(=O)OC2` [MPA, mycophenolic acid], the impact on viability (DUXB11 cell lines [1]) was “not significant”, the “Afucosylation (%)” value (DUXB11 cell lines [1]; [3]) was 3.85% and the “Titer” value (DUXB11 cell lines [1]; [3]) was 0.136 g/L. For the same molecule, the “Afucosylation (%)” value (DUXB11 cell lines [1]; [4]) was 4.9%, the “Titer” value (DUXB11 cell lines [1]; [4]) was 0.106 g/L and the “Afucosylation (%)” value (DUXB11 cell lines [1]; [5]) was 4.4%. For the same molecule, the “Titer” value (DUXB11 cell lines [1]; [5]) was 0.105 g/L, the “Cell viability (%)” value (DUXB11 cell lines [1]; 1 μM) was 62% and the “Cell viability (%)” value (DUXB11 cell lines [1]; 10 μM) was 61%. The “Cell viability (%)” value (DUXB11 cell lines [1]; 30 μM) was 62%, the Titer (DUXB11 cell lines [1]; [6]) was “decreased” and the afucosylation level (DUXB11 cell lines [1]; [6]) was “increase”. The impact on afucosylation (DUXB11 cell lines [2]; MPA added on a different day than peak VCD (one day past, D6)) was “non-significant impact”, the impact on afucosylation (DUXB11 cell lines [2]; MPA added on the day of peak VCD (Day 5), fixed 5 μM or VCD based) was “significant impact” and the “Afucosylation (%)” value (DUXB11 cell lines [2]; temperature 35 to 30 °C) was 11.9%. For the same molecule, the “Titer” value (DUXB11 cell lines [2]; temperature 35 to 30 °C) was 1.5 g/L, the “Afucosylation (%)” value (DUXB11 cell lines [2]; temperature 35 to 33 °C) was 10.7% and the “Titer” value (DUXB11 cell lines [2]; temperature 35 to 33 °C) was 1.8 g/L. The afucosylation level (BIIB603 cell line) was “increase in the afucosylation level”.
For `COc1c(C)c2c(c(O)c1C/C=C(\C)CCC(=O)O[C@@H]1O[C@H](C(=O)O)[C@@H](O)[C@H](O)[C@H]1O)C(=O)OC2` [acMPAG, mycophenolic acid acyl glucuronide], the afucosylation level (BIIB603 cell line) was “increased the afucosylation level to similar extent”.
